Test results from BindingDB's records for doi:10.1111/j.1747-0285.2009.00884.x (Pfizer, 2009).
Values joined by “and” are separate entries in the source; they are usually repeats but may differ in a detail not shown here. Identical values can stand only once. Blank lines part the entries; values can stand above or below the molecule they belong to.

How the values were obtained:
[1] = biological target: T1, Mitogen-activated protein kinase 14 (Homo sapiens, UniProt Q16539); experiment: Unactivated p38alpha cascade assay; conditions: pH 7.5; 25 °C
T1 sequence (Q16539 whole entry): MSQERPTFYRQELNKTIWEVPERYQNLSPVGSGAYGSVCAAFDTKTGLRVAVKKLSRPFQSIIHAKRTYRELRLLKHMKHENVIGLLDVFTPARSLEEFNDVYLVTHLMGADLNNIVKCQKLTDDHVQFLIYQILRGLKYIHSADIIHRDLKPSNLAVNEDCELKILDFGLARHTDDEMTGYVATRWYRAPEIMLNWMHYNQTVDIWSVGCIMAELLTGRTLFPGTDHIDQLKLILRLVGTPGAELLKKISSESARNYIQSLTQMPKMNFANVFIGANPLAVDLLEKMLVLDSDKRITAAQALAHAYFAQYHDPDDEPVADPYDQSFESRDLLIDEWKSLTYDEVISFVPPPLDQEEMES
Method: Binding of inhibitors to unactivated p38a that leads to decreasedphosphorylation of p38alpha by MKK6 was determined by measuringthe activated p38alpha activity in the assay mixture with andwithout inhibitors. In a 20-lL reaction mixture containing 50 mMHepes, pH 7.5, 1 mM EGTA, 10 mM MgCl2, 0.01% (w / v) Brij35 and 200 µM DTT, unactivated p38a (2 nM) was preincubatedwith inhibitors at various concentrations for 30 min at roomtemperature. Ten microliters of 1 mM ATP and 1 nM active MKK6were then introduced to initiate p38a activation. The reaction wasrun at room temperature for 15 min. The mixture was thenimmediately diluted 100-fold so that the inhibitor concentrationwas reduced by 2 orders of magnitude and residual inhibitoryeffect was minimized. The reaction product, active p38alpha, wasthen calculated based on its catalytic activity to activate MK2 asdescribed in Active p38a cascade assay section.

[2] = biological target: T1, Mitogen-activated protein kinase 14; experiment: Active p38alpha cascade assay; conditions: pH 7.5; 25 °C
Method: The reaction was run for 15 min atroom temperature. […] Under such

IC50 [1]: 11 nM
IC50 [2]: 691 nM
Structure (SMILES): Cc1ccc(C(=O)NCc2ccc(-n3nc(C(C)(C)C)cc3NC(=O)Nc3cccc4ccccc34)cc2)cc1C(=O)O [(7a) BIRB796]

IC50 [1]: 6 nM
IC50 [2]: 376 nM
Structure (SMILES): Cc1ccc(C(=O)NC(C)(O)NCc2ccc(-n3nc(C(C)(C)C)cc3NC(=O)Nc3ccccc3)cc2)cc1C(=O)O (stereo not given) [(9a) BIRB796]

IC50 [1]: 11 nM
IC50 [2]: 1080 nM
Structure (SMILES): Cc1ccc(C(=O)NC(=O)NCc2ccc(-n3nc(C(C)(C)C)cc3NC(=O)Nc3ccccc3)cc2)cc1C(=O)O [(11a) BIRB796]

IC50 [1]: 35 nM
IC50 [2]: 1220 nM
Structure (SMILES): Cc1ccc(C(=O)[n+]2cccc(C(=O)NCc3ccc(-n4nc(C(C)(C)C)cc4NC(=O)Nc4ccccc4)cc3)c2)cc1C(=O)O [(11b) BIRB796]

IC50 [1]: 53 nM
IC50 [2]: 1590 nM
Structure (SMILES): Cc1cc(C(=O)NC(=O)NCc2ccc(-n3nc(C(C)(C)C)cc3NC(=O)Nc3ccccc3)cc2)ccc1C(=O)O [(12a) BIRB796]

IC50 [1]: 62 nM
IC50 [2]: 1470 nM
Structure (SMILES): Cc1cc(C(=O)[n+]2cccc(C(=O)NCc3ccc(-n4nc(C(C)(C)C)cc4NC(=O)Nc4ccccc4)cc3)c2)ccc1C(=O)O [(12b) BIRB796]

Continued, molecule first:

Structure (SMILES): CC(=O)c1cc(C(=O)NCc2ccc(-n3nc(C(C)(C)C)cc3NC(=O)Nc3cccc4ccccc34)cc2)ccc1C [(5a) BIRB796]
IC50 [1]: 8 nM
IC50 [2]: 933 nM

Structure (SMILES): CC(=O)c1cc(C(=O)NC(O)(NCc2ccc(-n3nc(C(C)(C)C)cc3NC(=O)Nc3cccc4ccccc34)cc2)C2CCCC2)ccc1C (stereo not given) [(5b) BIRB796]
IC50 [1]: 26 nM
IC50 [2]: 1110 nM

Structure (SMILES): Cc1ccc(C(=O)NC(O)(NCc2ccc(-n3nc(C(C)(C)C)cc3NC(=O)Nc3cccc4ccccc34)cc2)C2CCCC2)cc1C(=O)O (stereo not given) [(7b) BIRB796]
IC50 [1]: 36 nM
IC50 [2]: 1130 nM

Structure (SMILES): Cc1cc(C(=O)NCc2ccc(-n3nc(C(C)(C)C)cc3NC(=O)Nc3cccc4ccccc34)cc2)ccc1C(=O)O [(8a) BIRB796]
IC50 [1]: 11 nM and 25 nM
IC50 [2]: 393 nM and 664 nM

Structure (SMILES): Cc1ccc(C(=O)NC(O)(NC(=O)NCc2ccc(-n3nc(C(C)(C)C)cc3NC(=O)Nc3ccccc3)cc2)C2CCCC2)cc1C(=O)O (stereo not given) [(9b) BIRB796]
IC50 [1]: 22 nM
IC50 [2]: 810 nM

Structure (SMILES): Cc1cc(C(=O)NC(C)(O)NCc2ccc(-n3nc(C(C)(C)C)cc3NC(=O)Nc3ccccc3)cc2)ccc1C(=O)O (stereo not given) [(10a) BIRB796]
IC50 [1]: 7 nM
IC50 [2]: 261 nM

Structure (SMILES): O=S1(=O)N=c2ccc3c4c(c5ccccc5c(c24)O1)OS(=O)(=O)N=3 [CP-232880]
IC50 [1]: 1030 nM
IC50 [2]: 2100 nM

Structure (SMILES): Clc1ccc(-c2c[nH]c(-c3cc4ccccc4cn3)n2)cc1 [PF-00215924]
IC50 [1]: 110 nM
IC50 [2]: 1.8 nM

Structure (SMILES): Brc1ccc(-c2c[nH]c(-c3cc4ccccc4cn3)n2)cc1 [PF-00215937]
IC50 [2]: 1900 nM and > 12500 nM

Structure (SMILES): Clc1cccc(-c2c[nH]c(-c3cc4ccccc4cn3)n2)c1 [PF-00240292]
IC50 [1]: 2300 nM
IC50 [2]: > 12500 nM

Structure (SMILES): Brc1ccc(-c2c[nH]c(-c3cc4ccccc4cn3)n2)cc1 [PF-04764755]
IC50 [1]: 320 nM
IC50 [2]: 2950 nM

Structure (SMILES): NCCC(=O)c1cccc(Oc2cccc(C(=O)CCN)c2)c1 [UK-146015]
IC50 [1]: 6000 nM
IC50 [2]: > 12500 nM
